In experiment [1] the target is T1, GKRP (Glucokinase Regulatory Protein) with human His-hepatic GK (Homo sapiens, UniProt Q14397).
T1 sequence (Q14397 1-625): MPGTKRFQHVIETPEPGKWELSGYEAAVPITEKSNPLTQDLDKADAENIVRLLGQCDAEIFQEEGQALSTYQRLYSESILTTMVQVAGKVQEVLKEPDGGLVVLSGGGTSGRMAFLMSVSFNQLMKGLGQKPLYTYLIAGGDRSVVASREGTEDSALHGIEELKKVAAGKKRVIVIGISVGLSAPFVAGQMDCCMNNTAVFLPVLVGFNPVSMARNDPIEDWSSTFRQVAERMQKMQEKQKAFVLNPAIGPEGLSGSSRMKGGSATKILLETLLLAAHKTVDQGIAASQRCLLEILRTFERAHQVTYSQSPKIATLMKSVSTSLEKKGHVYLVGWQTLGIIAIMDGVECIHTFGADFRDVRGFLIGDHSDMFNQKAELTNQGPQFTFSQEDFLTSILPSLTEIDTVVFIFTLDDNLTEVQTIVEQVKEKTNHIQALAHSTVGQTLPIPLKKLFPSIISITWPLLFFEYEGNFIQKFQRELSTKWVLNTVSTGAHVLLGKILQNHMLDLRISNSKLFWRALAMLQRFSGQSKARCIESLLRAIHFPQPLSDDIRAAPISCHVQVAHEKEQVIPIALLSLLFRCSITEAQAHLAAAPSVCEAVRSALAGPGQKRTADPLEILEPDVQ
The experiment can be described thus: GKRP NADPH Coupled Assay. The class given is biochemical. Conditions: GK-GKRP EC50 (NADPH-coupled), indirect measure of glucose-6-phosphate, fluorescence; 1 μM GKRP (10×), 20 nM GK (5×). Here is the method:
(§1) This assay is used to directly measure the formation of ^13C-glucose-6-phosphate from ^13C-glucose by liquid chromatography-mass spectrometry (LC MS/MS). Begin by preparing the following solutions: Compound Buffer (CB): 50 mM Tris, pH 7.5/4 mM MgCl2/6% DMSO/fresh 10 mM DTT from 1M frozen stock. Enzyme Buffer (EB): 50 mM Tris, pH 7.5/4 mM MgCl2/6% DMSO/fresh 0.1% BSA/fresh 0.01% Brij-35 (10% BSA and 1% Brij-35 stock). GK (Glucokinase) Working Stock (5×): Dilute human His-hepatic GK to 30 nM in EB buffer. […] After 30 minutes add 10 μl of GK Working Stock (5×). Re-seal the plate and incubate for another 30 minutes at room temperature while mixing. After the second 30 minutes, stop the reaction by the addition of 50 μl of 100% acetonitrile, seal, and mix for 5-10 minutes. Run 10 μl of this sample through the LC MS/MS (API 3200, Applied Biosystems Inc., Carlsbad, Calif.).
This assay is used as an indirect measure of glucose-6-phosphate (G6P) formed from glucose due to the enzymatic activity of glucokinase. Assay format is the same as for GKRP LC MS/MS Biochemical Assay with the following exceptions. GK Working Stock (5×): Dilute human His-hepatic GK to 20 nM in EB buffer. Stop & Detection Reagent (2×): Dilute β-nicotinamide adenine dinucleotide phosphate sodium salt (β-NADP) (Aldrich-Sigma, St. Louis, Mo.) to 2 mM from 100 mM stock (stock in 10 mM Tris, pH 9.2) and dilute glucose-6-phosphate dehydrogenase (Aldrich-Sigma, St. Louis, Mo.) to 0.04 Unit/μl from 10 Unit/μl (stock in 10 mM Tris pH 7.5/0.05% Brij-35) in 0.2 M Tris, pH 9.2/8% DMSO. After the initial 30 minute incubation add 10 μl of 20 nM GK diluted in EB (5×). Re-seal the plate and incubate for another 1 hour at room temperature while mixing. After 1 hour remove the seal and add 50 μl of Stop & Detection Reagent and incubate for 5 minutes at room temperature while mixing.

In experiment [2] the target is T1, GKRP (Glucokinase Regulatory Protein) with human His-hepatic GK. As to the kind of experiment: GKRP LC MS/MS Biochemical Assay. Conditions: 13C-glucose-6-phosphate formation, 1 μM GKRP (10×), 30 nM GK (5×). As for the experimental part: GKRP LC MS/MS Biochemical Assay
as §1

Experiment [3] shares this target. The experiment can be described thus: biochemical. Conditions: 13C-glucose-6-phosphate formation; 280 nM GKRP (10×), 30 nM GK (5×); read-out: GK-GKRP EC50 (LC MS/MS-2). The gist of the method:
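Product formation, 13C-glucose-6-phosphate from 13C-glucose, was measured directly by LC MS/MS after acetonitrile quench. The GK reaction ran 30 min at room temperature in Tris pH 7.5 buffer with 4 mM MgCl2 and 6% DMSO. The 5× enzyme stock was 30 nM His-tagged human hepatic glucokinase.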

Experiment [4] has as its target T2, interaction between glucokinase (GK) and glucokinase regulatory protein (GKRP) (Homo sapiens, UniProt Q14397).
T2 sequence (Q14397 1-625): T1 sequence (Q14397 1-625)
The experiment can be described thus: biochemical. Conditions: avi-tagged GKRP, GK-fluorescein, AlphaScreen beads; read-out: GK-GKRP IC50 (Binding). The class given is binding. Put shortly: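 Measures direct GK–GKRP binding in 20 mM Tris pH 7.5 containing 1 μM sorbitol-6-phosphate, 0.05% BSA and 1 mM DTT. Compound and avi-tagged GKRP sit 20 min at room temperature before GK-fluorescein addition (6 nM in the added buffer); read after 2 h dark incubation at room temperature.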
For orientation: Bead proximity is the source of the signal in Alpha formats.

Setting [5] is: read-out: GK-GKRP EC50 (LC MS/MS).

Counter-ions that a name gives are not always drawn.

`CC(O)(c1ccc(N2CCN(S(=O)(=O)c3cccs3)CC2CN2CC[C@@H](O)C2)cc1)C(F)(F)F` (mixture of isomers) [Example 56, (3R)-1-((4-(2-thiophenylsulfonyl)-1-(4-(2,2,2-trifluoro-1-hydroxy-1-methylethyl)phenyl)-2-piperazinyl)methyl)-3-pyrrolidinol] showed an EC50 in experiment [1] of 3500 nM.

As for `C[C@H]1CN(S(=O)(=O)c2cccs2)CCN1c1ccc(C(O)(CO)C(F)(F)F)cc1` (mixture of isomers) [Example 67, 2-(4-((2S)-2-methyl-4-(2-thiophenylsulfonyl)-1-piperazinyl)phenyl)-3,3,3-trifluoro-1,2-propanediol], in experiment [2] (setting [5]), the EC50 was 670 nM.

`CC(O)(c1ccc(N2CCN(S(=O)(=O)c3nccs3)CC2)cc1)C(F)(F)F` (racemic) [Example 32, 1,1,1-trifluoro-2-(4-(4-(1,3-thiazol-2-ylsulfonyl)-1-piperazinyl)phenyl)-2-propanol trifluoroacetate] had an EC50 in experiment [2] (GK-GKRP EC50 (LC MS/MS)) of 4750 nM.

For `CC(O)(c1ccc(N2CCN(S(=O)(=O)c3cccs3)C[C@@H]2Cn2ccnc2)cc1)C(F)(F)F` (mixture of isomers) [Example 170, 2-(4-((S)-2-((1H-imidazol-1-yl)methyl)-4-(thiophen-2-ylsulfonyl)piperazin-1-yl)phenyl)-1,1,1-trifluoro-2-propanol], the EC50 was 762 nM in experiment [1] and 942 nM in experiment [3].

As for `CC(O)(c1ccc(N2CCN(S(=O)(=O)c3cccs3)C[C@@H]2Cn2ccc3nccnc32)cc1)C(F)(F)F` (mixture of isomers) [Example 171, 2-(4-((S)-2-((5H-pyrrolo[2,3-b]pyrazin-5-yl)methyl)-4-(thiophen-2-ylsulfonyl)piperazin-1-yl)phenyl)-1,1,1-trifluoro-2-propanol], the EC50 in experiment [1] came out at 649 nM; in experiment [3], 801 nM.

Regarding `CC(O)(c1ccc(N2CCN(S(=O)(=O)c3cccs3)C[C@@H]2Cn2ccc3cccnc32)cc1)C(F)(F)F` (mixture of isomers) [Example 172, 2-(4-((S)-2-((1H-pyrrolo[2,3-b]pyridin-1-yl)methyl)-4-(thiophen-2-ylsulfonyl)piperazin-1-yl)phenyl)-1,1,1-trifluoro-2-propanol], the EC50 in experiment [1] stood at 253 nM; in experiment [3], 249 nM.

The compound `O=S(=O)(c1cccs1)N1CCN(c2ccc(C(O)(C(F)(F)F)C(F)(F)F)cc2)C(Cc2cccc(O)c2)C1` (racemic) [Example 176, 3-((1-(4-(1,1,1,3,3,3-hexafluoro-2-hydroxypropan-2-yl)phenyl)-4-(thiophen-2-ylsulfonyl)piperazin-2-yl)methyl)phenol] gave an EC50 in experiment [1] of 1810 nM.

In turn, `CC(O)(c1ccc(N2CCN(S(=O)(=O)c3ccccc3)CC2)cc1)C(F)(F)F` (single isomer, unassigned) [Example 24 Peak #2, 1,1,1-trifluoro-2-(4-(4-(phenylsulfonyl)-1-piperazinyl)phenyl)-2-propanol] yielded an EC50 in experiment [2] (GK-GKRP EC50 (LC MS/MS)) of 3010 nM.

Regarding `C[C@H]1CN(S(=O)(=O)c2nccs2)CCN1c1ccc(C(C)(O)C(F)(F)F)cc1` (single isomer, unassigned) [Example 34 Peak #1], the EC50 in experiment [1] is 2500 nM.

On to `CC(O)(c1ccc(N2CCN(S(=O)(=O)c3cccs3)CC2CC2CCOCC2)cc1)C(F)(F)F` (single isomer, unassigned) [Example 37 Peak #3, 1,1,1-trifluoro-2-(4-(2-(tetrahydro-2H-pyran-4-ylmethyl)-4-(2-thiophenylsulfonyl)-1-piperazinyl)phenyl)-2-propanol], for which, in experiment [1], the EC50 is 13000 nM.

`CC(O)(c1ccc(N2CCN(S(=O)(=O)c3cccs3)CC2CC2CCOCC2)cc1)C(F)(F)F` (single isomer, unassigned) [Example 37 Peak #4, 1,1,1-trifluoro-2-(4-(2-(tetrahydro-2H-pyran-4-ylmethyl)-4-(2-thiophenylsulfonyl)-1-piperazinyl)phenyl)-2-propanol]: the EC50 in experiment [1] is above 50000 nM.

With `C[C@H]1COCCN1CC1CN(S(=O)(=O)c2cccs2)CCN1c1ccc(C(C)(O)C(F)(F)F)cc1` (single isomer, unassigned) [Example 45 Peak #3], the EC50 in experiment [1] worked out at 15100 nM.

For the compound `O=S(=O)(c1cccs1)N1CCN(c2ccc(C(O)(CO)C(F)(F)F)cc2)CC1` (single isomer, unassigned) [Example 66 Peak #1, 3,3,3-trifluoro-2-(4-(4-(2-thiophenylsulfonyl)-1-piperazinyl)phenyl)-1,2-propanediol], the EC50 in experiment [2] (setting [5]) was found to be 4430 nM.

The compound `O=S(=O)(c1cccs1)N1CCN(c2ccc(C(O)(C(F)(F)F)C(F)(F)F)cc2)C[C@H]1C1CC1` [Example 14, 2-(4-((3R)-3-cyclopropyl-4-(2-thiophenylsulfonyl)-1-piperazinyl)phenyl)-1,1,1,3,3,3-hexafluoro-2-propanol] returned an EC50 in experiment [1] of 5000 nM.

Take `C[C@H]1CN(S(=O)(=O)c2ccoc2)CCN1c1ccc(C(C)(O)C(F)(F)F)cc1` (stereo partly drawn) [Example 30, 1,1,1-trifluoro-2-(4-((2S)-4-(3-furanylsulfonyl)-2-methyl-1-piperazinyl)phenyl)-2-propanol]: the EC50 in experiment [1] was determined as 3120 nM.

With `C[C@H]1COCCN1C[C@H]1CN(S(=O)(=O)c2ccc(N)nc2)CCN1c1ccc(C(O)(C(F)(F)F)C(F)(F)F)cc1` [Example 124, 2-(4-((2S)-4-((6-amino-3-pyridinyl)sulfonyl)-2-(((3S)-3-methyl-4-morpholinyl)methyl)-1-piperazinyl)phenyl)-1,1,1,3,3,3-hexafluoro-2-propanol], the figures for the EC50 in experiment [1] and in experiment [3] were 1 nM and 18 nM, respectively.

In general, IC50 refers to the concentration that gives 50% inhibition. In the case of `CS(=O)(=O)N(C[C@H]1CN(S(=O)(=O)c2ccc(N)s2)CCN1c1ncc(C(O)(C(F)(F)F)C(F)(F)F)cn1)c1ccccc1` [Example 233, N-(((2R)-4-((5-amino-2-thiophenyl)sulfonyl)-1-(5-(2,2,2-trifluoro-1-hydroxy-1-(trifluoromethyl)ethyl)-2-pyrimidinyl)-2-piperazinyl)methyl)-N-phenylmethanesulfonamide], in experiment [4], the IC50 is below 1 nM. Moreover, the EC50 in experiment [3] came out at 8 nM.

`CS(=O)(=O)N(C[C@H]1CN(S(=O)(=O)c2ccc(N)nc2)CCN1c1ncc(C(O)(C(F)(F)F)C(F)(F)F)cn1)c1ccccc1` [Example 234, N-(((2R)-4-((6-amino-3-pyridinyl)sulfonyl)-1-(5-(2,2,2-trifluoro-1-hydroxy-1-(trifluoromethyl)ethyl)-2-pyrimidinyl)-2-piperazinyl)methyl)-N-phenylmethanesulfonamide]: the IC50 in experiment [4] was 4 nM. Besides, the EC50 in experiment [3] is 17 nM.

These data come from patent publication US8431563B2 (priority 2010, dated 2013).
